In US12648917B2 (University of Florida Research Foundation, Incorporated, priority 2017, dated 2026):
Entries after “also recorded” stand apart in the source; their conditions may differ.

How the values were obtained:
PKR = target: T1, PKR (Homo sapiens, UniProt P19525); assay: p-PKR (T446 and T451) levels by protein blot in HEK293T cells transfected with repeat expansion constructs; format: cell-based; settings: for G4C2 repeat-expansion induced p-PKR (T446 and T451) levels, dose dependence: cells transfected with a G4C2 repeat expansion construct (FIG. 4)
T1 construct: endogenous in cells; host or cells: HEK293T
Procedure: (§1) HEK293T cells were cultured in DMEM medium supplemented with 10% fetal bovine serum and incubated at 37° C. in a humid atmosphere containing 5% CO2. DNA transfections were performed using Lipofectamine 2000 Reagent (Invitrogen) according to the manufacturer's instructions.
(§2) Transfected cells in each well of a six-well tissue-culture plate were rinsed with PBS and lysed in 300 μL RIPA buffer with protease inhibitor cocktail for 45 min on ice. DNA was sheared by passage through a 21-gauge needle. The cell lysates were centrifuged at 16,000×g for 15 min at 4° C., and the supernatant was collected. The protein concentration of the cell lysate was determined using the protein assay dye reagent (Bio-Rad). Twenty micrograms of protein were separated in a 4-12% NuPAGE Bis-Tris gel (Invitrogen) and transferred to a nitrocellulose membrane (Amersham). The membrane was blocked in 5% dry milk in PBS containing 0.05% Tween-20 (PBS-T) and probed with the anti-Flag (1:2000), anti-Myc (1:1000), anti-HA (1:1000), or rabbit polyclonal antibodies (1:1000) in blocking solution. After the membrane was incubated with anti-rabbit or anti-mouse HRP-conjugated secondary antibody (Amersham), bands were visualized by the ECL plus Western Blotting Detection System (Amersham).
[…]. Transient transfections of expansion constructs treated with or without metformin were performed. […].

RAN protein translation = assay: RAN protein levels by protein blot in HEK293T cells transfected with repeat expansion constructs; format: cell-based; settings: for RAN polyGP protein levels, dose dependence: HEK293T cells transiently transfected with G4C2 expansion constructs (FIG. 4)
From the text: . […] Protein blots were run on protein lysates from HEK293T cells transfected with various repeat expansion constructs shown in FIG. 1A. In FIG. 1B, the lanes labeled KMQ, show: RAN poly-Ser-Flag, RAN poly-Ala-HA, ATG initiated polyGln-Myc. In FIG. 1B, the lanes labeled KMQ has a methionine encoding ATG immediately 5′ to the CAG repeat expansion and located within the polyGln reading frame. The lanes labeled KKQ indicate the KKQ vector contains a CAG expansion without an AUG initiation codon, and indicates: RAN polySer-Flag, RAN polyAla-HA, RAN polyGln-Myc. These constructs contain epitope tags that are incorporated into the C-terminal regions of the ATG-initiated poly-Gln and non-ATG initiated RAN proteins (poly-Gln, poly-Leu-Pro-Ala-Cys and poly-Gly-Pro) which are expressed across these repeat expansions. The lane labeled CCTG expresses the following RAN proteins: RAN polyLPAC-Flag, RAN polyLPAC-HA, RAN polyLPAC-Myc. The lane labeled G4C2 is designed to detect the following RAN proteins: RAN polyGP-Flag, RAN polyGR-HA, RAN polyGA-Myc. […].
as §1, §2
. Transient transfections of expansion constructs treated with or without metformin were performed. […]. […] Protein blots were run on protein lysates from HEK293T cells transfected with various repeat expansion constructs shown in FIG. 5A. In FIG. 5B, the lanes labeled KMQ, show: RAN poly-Ser-Flag, RAN poly-Ala-HA, ATG initiated polyGln-Myc. In FIG. 5B the lanes labeled KMQ has a methionine encoding ATG immediately 5′ to the CAG repeat expansion and located within the polyGln reading frame. The lanes labeled KKQ indicate the KKQ vector contains a CAG expansion without an AUG initiation codon, and indicates: RAN polySer-Flag, RAN polyAla-HA, RAN polyGln-Myc. These constructs contain epitope tags that are incorporated into the C-terminal regions of the ATG-initiated poly-Gln and non-ATG initiated RAN proteins (poly-Gln, poly-Leu-Pro-Ala-Cys and poly-Gly-Pro) which are expressed across these repeat expansions. The lane labeled CCTG expresses the following RAN proteins: RAN polyLPAC-Flag, RAN polyLPAC-HA, RAN polyLPAC-Myc. The lane labeled G4C2 is designed to detect the following RAN proteins: RAN polyGP-Flag, RAN polyGR-HA, RAN polyGA-Myc. […].

[1] = system: glial fibrillary acidic protein (GFAP); assay: IHC staining for GFAP (neuroinflammation, reactive gliosis) in C9-BAC mice; format: in vivo, mouse
[2] = metformin 5 mg/ml in the drinking water; previously shown, comparable to human doses of 20 mg/kg/day; cited from earlier work
GA aggregates = GA aggregates in retrosplenial cortex of C9-BAC mice; format: in vivo, mouse; settings: for reduction in the number of GA aggregates compared to C9 controls: 5 mg/ml in drinking water
Procedure: (§3) In Group A animals, treatment began at 2 months of age, before the onset of overt behavioral or pathological phenotypes. In Group B, smaller cohorts of animals (n=8/group) were treated beginning at 6 months, an age at which behavioral phenotypes are evident. DigiGait analyses of Group A mice at 5 months identified eight DigiGait parameters that differed between untreated C9 and NT cohorts. […]. […] […].
Cancer Prev Res (Phila) 3, 1066-1076, doi: 10.1158/1940-6207. CAPR-10-0055 (2010)). In Group A animals, three months of treatment began at 2 months of age, before the onset of overt behavioral or pathological phenotypes. In Group B, smaller cohorts of animals were treated for four months beginning at 6 months, an age at which behavioral phenotypes are evident^12.

C9-BAC mice = assay: Open field analysis (center time) in C9-BAC mice; format: in vivo, mouse; settings: Group A metformin-treated C9 mice compared to untreated C9 mice
Procedure: Open field analysis. Open field analysis was performed by testing mouse behavior during a 30 min session in a completely dark open chamber (17″×17″) (Med Associates). Approximately two hours before the start of analysis, mice were placed in the testing room to allow for acclimation to the room. Mice were then placed in the center of the darkened activity-monitoring chamber. The trace path and center time was recorded and analyzed with Activity Monitor (MED associates, Inc.) software.
as §3
DigiGait analyses of Group A mice at 5 months identified eight parameters that differed between untreated C9 and NT cohorts. […]. […]. […]

[3] = system: glycine-proline (GP) RAN protein; assay: GP RAN protein levels in leukocyte lysates from peripheral blood of a C9ORF72 expansion-positive subject; format: in vivo; settings: single human subject with C9ORF72 repeat expansion, 500 or 1000 mg/day Metformin Hydrochloride Extended Release Tablets, 10 to 30 days after treatment
From the text: […]. […] […]. […] […]

T1 sequence (P19525 whole entry): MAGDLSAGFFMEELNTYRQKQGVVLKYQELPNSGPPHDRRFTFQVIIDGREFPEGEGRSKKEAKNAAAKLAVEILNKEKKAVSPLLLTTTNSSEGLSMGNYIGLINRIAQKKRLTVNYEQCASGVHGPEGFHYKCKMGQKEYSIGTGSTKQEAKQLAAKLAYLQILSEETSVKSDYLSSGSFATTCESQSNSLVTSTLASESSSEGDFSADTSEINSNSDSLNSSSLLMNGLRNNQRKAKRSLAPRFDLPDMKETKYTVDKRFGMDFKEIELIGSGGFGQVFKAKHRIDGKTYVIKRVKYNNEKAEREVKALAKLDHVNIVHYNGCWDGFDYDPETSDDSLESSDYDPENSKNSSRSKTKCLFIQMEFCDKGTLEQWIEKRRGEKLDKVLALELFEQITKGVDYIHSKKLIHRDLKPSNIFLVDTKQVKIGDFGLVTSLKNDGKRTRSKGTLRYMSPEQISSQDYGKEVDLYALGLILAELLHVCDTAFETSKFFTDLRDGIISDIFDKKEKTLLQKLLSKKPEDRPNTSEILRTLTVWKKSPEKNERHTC

| Compound | G4C2 repeat-expansion induced p-PKR (T446 and T451) levels, dose dependence (PKR) | RAN polyGP protein levels, dose dependence (RAN protein translation) | GFAP staining / reactive gliosis compared to untreated C9 animals, in words ([1]; C9 metformin treated vs untreated C9 animals (Group A)) | reduction of GFAP staining compared to untreated C9 mice ([1]; Group A) [%] | reduction of GFAP staining compared to untreated C9 mice ([1]; Group B) [%] | plasma levels [2] [µM] | p-PKR (T446 and T451) levels / PKR phosphorylation (PKR; cells transfected with repeat expansion constructs, with or without metformin (FIG. 3B, FIG. 6A)) | RAN protein levels of poly-Ala (RAN protein translation; HEK293T cells transfected with CAG repeat expansion constructs, treated with metformin, protein blot) | RAN protein levels of poly-LPAC (all three reading frames) (RAN protein translation; HEK293T cells transfected with CCTG repeat expansion construct, treated with metformin, protein blot) | RAN protein levels of poly-GP (RAN protein translation; HEK293T cells transfected with G4C2 (GGGGCC) repeat expansion construct, treated with metformin, protein blot) | RAN protein levels / expression (RAN protein translation; HEK293T cells transiently transfected with CAG, CCTG, CAGG and G4C2 expansion constructs (FIG. 3A)) | reduction in the number of GA aggregates compared to C9 controls (GA aggregates; Group A (treated from 2 months of age, 3 months), P=0.01) [%] | reduction in the number of GA aggregates compared to C9 controls (GA aggregates; Group B (treated from 6 months of age), P=0.047) [%] | GA aggregates compared to untreated C9 controls, in words (GA aggregates; metformin in drinking water, Group A and Group B) | open field center time (anxiety-like behavior) (C9-BAC mice) | glycine-proline (GP) RAN protein levels compared to pretreatment levels [3] |
| --- | --- | --- | --- | --- | --- | --- | --- | --- | --- | --- | --- | --- | --- | --- | --- | --- |
| [H]/N=C(/N)N/C(=N/[H])NCCc1ccccc1 [phenformin] | reduce levels of p-PKR | reduce GP RAN protein levels in a dose-dependent manner | – | – | – | – | – | – | – | – | – | – | – | – | – | – |
| CN(C)C(=N)NC(=N)N [metformin] | reduce levels of p-PKR | reduce GP RAN protein levels in a dose-dependent manner | significantly reduced; also recorded: decreased levels of reactive gliosis | 79 | 74 | ~10 | decreases PKR phosphorylation; also recorded: reduces levels of p-PKR | reduced; also recorded: decreases | reduced; also recorded: decreases | reduced; also recorded: decreases | decreases RAN protein levels; also recorded: reduces RAN protein expression | 38 | 37 | decreased numbers of GA aggregates; also recorded: reduction in GA aggregates | increased center time; also recorded: normalization or increased center time; also recorded: normalized | Dose dependent reduction; also recorded: Dose-dependent reduction |
| CCCCNC(=N)NC(=N)N [buformin] | reduce levels of p-PKR | reduce GP RAN protein levels in a dose-dependent manner | – | – | – | – | – | – | – | – | – | – | – | – | – | – |
